The text below walks through data of US9650340B2, “5-fluoro-N-(pyridin-2-yl)pyridin-2-amine derivatives containing a sulfoximine group” (BAYER PHARMA AKTIENGESELLSCHAFT, priority 2012, dated 2017).

Experiment [1] relates to HeLa-MaTu-ADR, multidrug-resistant human cervical carcinoma cells. As to the kind of experiment: Proliferation assay, HeLa-MaTu-ADR (crystal violet). The following applies: 4 days, read-out: Inhibition of HeLa-MaTu-ADR cell proliferation IC50. The format is cell-based. The protocol:
(§1) Cultivated tumour cells (HeLa, human cervical tumour cells, ATCC CCL-2; NCI-H460, human non-small cell lung carcinoma cells, ATCC HTB-177; A2780, human ovarian carcinoma cells, ECACC #93112519; DU 145, hormone-independent human prostate carcinoma cells, ATCC HTB-81; HeLa-MaTu-ADR, multidrug-resistant human cervical carcinoma cells, EPO-GmbH Berlin; Caco-2, human colorectal carcinoma cells, ATCC HTB-37; B16F10, mouse melanoma cells, ATCC CRL-6475) were plated at a density of 5,000 cells/well (DU145, HeLa-MaTu-ADR), 3,000 cells/well (NCI-H460, HeLa), 2,500 cells/well (A2780), 1,500 cells/well (Caco-2), or 1,000 cells/well (B16F10) in a 96-well multititer plate in 200 μL of their respective growth medium supplemented 10% fetal calf serum. After 24 hours, the cells of one plate (zero-point plate) were stained with crystal violet (see below), while the medium of the other plates was replaced by fresh culture medium (200 μl), to which the test substances were added in various concentrations (0 μM, as well as in the range of 0.001-10 μM; the final concentration of the solvent dimethyl sulfoxide was 0.5%). The cells were incubated for 4 days in the presence of test substances. Cell proliferation was determined by staining the cells with crystal violet: the cells were fixed by adding 20 μl/measuring point of an 11% glutaric aldehyde solution for 15 minutes at room temperature. After three washing cycles of the fixed cells with water, the plates were dried at room temperature. The cells were stained by adding 100 μl/measuring point of a 0.1% crystal violet solution (pH 3.0). After three washing cycles of the stained cells with water, the plates were dried at room temperature. The dye was dissolved by adding 100 μl/measuring point of a 10% acetic acid solution. The extinction was determined by photometry at a wavelength of 595 nm. The change of cell number, in percent, was calculated by normalization of the measured values to the extinction values of the zero-point plate (=0%) and the extinction of the untreated (0 μm) cells (=100%). The IC50 values (inhibitory concentration at 50% of maximal effect) were determined by means of a 4 parameter fit. Non-adherent MOLM-13 human acute myeloid leukemia cells (DSMZ ACC 554) were seeded at a density of 5,000 cells/well in a 96-well multititer plate in 100 μL of growth medium supplemented 10% fetal calf serum. After 24 hours, cell viability of one plate (zero-point plate) was determined with the Cell Titre-Glo Luminescent Cell Viability Assay (Promega), while 50 μL of test compound containing medium was added to the wells of the other plates (final concentrations in the range of 0.001-10 μM and DMSO controls; the final concentration of the solvent dimethyl sulfoxide was 0.5%). Cell viability was assessed after 72-hour exposure with the Cell Titre-Glo Luminescent Cell Viability Assay (Promega).

Experiment [2] relates to Caco-2, human colorectal carcinoma cells. As to the kind of experiment: Proliferation assay, Caco-2 (crystal violet). It is filed as cell-based. The following applies: Caco-2, 4 days, read-out: Inhibition of Caco-2 cell proliferation IC50. How it is done: as §1
In the next experiment the target is T1, CDK9/CycT1 (Homo sapiens, UniProt P50750).
T1 construct: Recombinant full-length His-tagged human CDK9 and CycT1; His; purchased Invitrogen PV4131; host or cells: insect cells
T1 sequence (P50750 whole entry): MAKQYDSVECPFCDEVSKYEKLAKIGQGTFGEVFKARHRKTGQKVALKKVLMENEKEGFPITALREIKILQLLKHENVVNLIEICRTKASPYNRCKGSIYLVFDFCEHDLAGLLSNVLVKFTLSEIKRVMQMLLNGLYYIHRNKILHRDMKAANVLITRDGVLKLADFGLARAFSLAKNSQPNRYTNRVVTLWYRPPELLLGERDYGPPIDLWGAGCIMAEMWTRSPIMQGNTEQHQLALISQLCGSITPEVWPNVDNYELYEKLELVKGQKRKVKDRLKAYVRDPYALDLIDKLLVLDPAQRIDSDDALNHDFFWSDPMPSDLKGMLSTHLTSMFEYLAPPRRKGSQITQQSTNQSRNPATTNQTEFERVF
T1 sequence (O60563 whole entry partner): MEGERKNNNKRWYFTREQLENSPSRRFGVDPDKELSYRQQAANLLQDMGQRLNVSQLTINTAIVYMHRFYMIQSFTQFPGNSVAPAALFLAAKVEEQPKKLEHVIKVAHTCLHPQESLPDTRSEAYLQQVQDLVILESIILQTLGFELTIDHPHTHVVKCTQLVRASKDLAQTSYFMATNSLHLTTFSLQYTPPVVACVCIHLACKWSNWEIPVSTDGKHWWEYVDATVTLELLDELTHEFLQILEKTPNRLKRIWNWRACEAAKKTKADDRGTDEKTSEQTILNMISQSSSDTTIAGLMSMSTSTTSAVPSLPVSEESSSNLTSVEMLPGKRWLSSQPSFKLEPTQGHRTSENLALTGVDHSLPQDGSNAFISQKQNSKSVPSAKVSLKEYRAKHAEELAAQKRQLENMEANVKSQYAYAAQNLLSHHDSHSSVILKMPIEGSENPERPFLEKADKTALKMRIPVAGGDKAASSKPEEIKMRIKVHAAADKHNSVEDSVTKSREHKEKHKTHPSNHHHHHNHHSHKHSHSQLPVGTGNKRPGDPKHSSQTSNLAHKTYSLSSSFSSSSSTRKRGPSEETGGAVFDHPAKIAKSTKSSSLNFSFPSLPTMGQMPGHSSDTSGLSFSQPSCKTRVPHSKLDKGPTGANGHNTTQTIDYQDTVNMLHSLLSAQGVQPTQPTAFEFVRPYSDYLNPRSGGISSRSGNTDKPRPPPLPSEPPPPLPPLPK
Kind of experiment: CDK9/CycT1 kinase assay (TR-FRET, 10 μM ATP). It is filed as biochemical. The following applies: Method 1a. The text has this: 1a. CDK9/CyeT1 Kinase Assay:
CDK9/CycT1-inhibitory activity of compounds of the present invention was quantified employing the CDK9/CycT1 TR-FRET assay as described in the following paragraphs:
Recombinant full-length His-tagged human CDK9 and CycT1, expressed in insect cells and purified by Ni-NTA affinity chromatography, were purchased from Invitrogen (Cat. No PV4131). As substrate for the kinase reaction biotinylated peptide biotin-Ttds-[…] (C-terminus in amid form) was used which can be purchased e.g. form the company JERINI Peptide Technologies (Berlin, Germany). For the assay 50 nl of a 100 fold concentrated solution of the test compound in DMSO was pipetted into a black low volume 384 well microtiter plate (Greiner Bio-One, Frickenhausen, Germany), 2 μl of a solution of CDK9/CycT1 in aqueous assay buffer [50 mM Tris/HCl pH 8.0, 10 mM MgCl2, 1.0 mM dithiothreitol, 0.1 mM sodium ortho-vanadate, 0.01% (v/v) Nonidet-P40 (Sigma)] were added and the mixture was incubated for 15 min at 22° C. to allow pre-binding of the test compounds to the enzyme before the start of the kinase reaction.
The resulting mixture was incubated 1 h at 22° C. to allow the formation of complex between the phosphorylated biotinylated peptide and the detection reagents. Subsequently the amount of phosphorylated substrate was evaluated by measurement of the resonance energy transfer from the Eu-chelate to the streptavidine-XL.
(In general: Time-resolved FRET reads energy transfer from a long-lived donor to a nearby acceptor.)

In experiment [3] the test system is HeLa, human cervical tumour cells. As to the kind of experiment: Proliferation assay, HeLa (crystal violet). The format is cell-based. The following applies: 4 days, read-out: Inhibition of HeLa cell proliferation IC50. How it is done: as §1

Counter-ions that a name gives are not always drawn. Like-named read-outs stand apart in the source and are kept apart here.

For the molecule `CCOc1cc(F)ccc1-c1cc(Nc2cc(CS(C)(=O)=NC(=O)C(F)(F)F)cc(F)n2)ncc1F` (racemic) [Example 27, (rac)-N-{[(2-{[4-(2-Ethoxy-4-fluoro-phenyl)-5-fluoropyridin-2-yl]amino}-6-fluoropyridin-4-yl)methyl]-(methyl)oxido-λ^6-sulfanylidene}-2,2,2-trifluoroacetamide], the IC50 in experiment [1] (Homo sapiens, 96 h) is 110 nM; in experiment [2] (Homo sapiens, Caco-2, 96 h), 130 nM; against CDK9/CycT1, 9 nM; in experiment [3] (Homo sapiens, 96 h), 100 nM.

With `CCOc1cc(F)ccc1-c1cc(Nc2cc(CS(C)(=N)=O)cc(F)n2)ncc1F` (single isomer, unassigned; (+)) [Example 28, (+)-4-(2-Ethoxy-4-fluorophenyl)-5-fluoro-N-{6-fluoro-4-[(S-methylsulfonimidoyl)methyl]pyridin-2-yl}pyridin-2-amine], the IC50 in experiment [1] (Homo sapiens, 96 h) worked out at 120 nM; in experiment [2] (Homo sapiens, Caco-2, 96 h) it was 120 nM; against CDK9/CycT1, 5 nM; in experiment [3] (Homo sapiens, 96 h), 99 nM.

Consider `COc1cc(F)ccc1-c1cc(Nc2cc(CS(C)(=N)=O)c(Br)c(C)n2)ncc1F` (racemic) [Example 5, (rac)-5-Bromo-N-[5-fluoro-4-(4-fluoro-2-methoxyphenyl)pyridin-2-yl]-6-methyl-4-[(S-methylsulfonimidoyl)methyl]pyridin-2-amine], for which the IC50 in experiment [2] (Homo sapiens, Caco-2, 96 h) came out at 110 nM; against CDK9/CycT1, 5 nM; in experiment [3] (Homo sapiens, 96 h), 93 nM.

Turning to `COc1cc(F)ccc1-c1cc(Nc2cc(CS(C)(=N)=O)cc(C(F)F)n2)ncc1F` (racemic) [Example 31, (rac)-N-{6-(Difluoromethyl)-4-[(S-methylsulfonimidoyl)methyl]pyridin-2-yl}-5-fluoro-4-(4-fluoro-2-methoxyphenyl)pyridin-2-amine], the IC50 against CDK9/CycT1 is 3 nM; in experiment [3] (Homo sapiens, 96 h), 8 nM.

On to `COc1cc(F)ccc1-c1cc(Nc2cc(CS(C)(=N)=O)ccn2)ncc1F` (single isomer, unassigned; enantiomer 1) [Example 16, 5-Fluoro-4-(4-fluoro-2-methoxyphenyl)-N-{4-[(S-methylsulfonimidoyl)methyl]pyridin-2-yl}pyridin-2-amine hydrochloride; enantiomer 1], for which the IC50 in experiment [1] came out at 110 nM; in experiment [2], 120 nM; in experiment [3] it was 63 nM.

Consider `COc1cc(F)ccc1-c1cc(Nc2cc(CS(C)(=O)=NC(=O)C(F)(F)F)cc(F)n2)ncc1F` (racemic) [Example 18, (rac)-2,2,2-Trifluoro-N-{[(2-fluoro-6-{[5-fluoro-4-(4-fluoro-2-methoxyphenyl)pyridin-2-yl]amino}pyridin-4-yl)methyl](methyl)oxido-λ^6-sulfanylidene}acetamide], for which the IC50 stood at 35 nM in experiment [1] (Homo sapiens, 96 h); 43 nM in experiment [2] (Homo sapiens, Caco-2, 96 h); 3 nM at CDK9/CycT1; 61 nM in experiment [3] (Homo sapiens, 96 h).

Take `CCOC(=O)N=S(C)(=O)Cc1cc(Nc2cc(-c3ccc(F)cc3OC)c(F)cn2)nc(OC)c1` (racemic) [Example 15, (rac)-ethyl{[(2-{[5-fluoro-4-(4-fluoro-2-methoxyphenyl)pyridin-2-yl]amino}-6-methoxypyridin-4-yl)methyl](methyl)oxido-λ^6-sulfanylidene}carbamate]: the IC50 is 31 nM in experiment [1] (Homo sapiens, 96 h); 39 nM in experiment [2] (Homo sapiens, Caco-2, 96 h); 2 nM against CDK9/CycT1; 40 nM in experiment [3] (Homo sapiens, 96 h).

For the molecule `COc1cc(F)ccc1-c1cc(Nc2cc(CS(C)(=N)=O)cc(F)n2)ncc1F` (single isomer, unassigned; (+)) [Example 19, (+)-5-Fluoro-4-(4-fluoro-2-methoxyphenyl)-N-{6-fluoro-4-[(S-methylsulfonimidoyl)methyl]pyridin-2-yl}pyridin-2-amine], the IC50 in experiment [1] (Homo sapiens, 96 h) is 64 nM; on CDK9/CycT1 it was 5 nM.

On to `CCS(=N)(=O)Cc1ccnc(Nc2cc(-c3ccc(F)cc3OC)c(F)cn2)c1` (racemic) [Example 30, (rac)-N-{4-[(S-Ethylsulfonimidoyl)-methyl]pyridin-2-yl}-5-fluoro-4-(4-fluoro-2-methoxyphenyl)pyridin-2-amine], for which the IC50 was determined as 74 nM in experiment [1] (Homo sapiens, 96 h); 52 nM in experiment [2] (Homo sapiens, Caco-2, 96 h); 3 nM at CDK9/CycT1; 100 nM in experiment [3] (Homo sapiens, 96 h).

On to `CCOc1cc(F)ccc1-c1cc(Nc2cc(CS(C)(=N)=O)cc(F)n2)ncc1F` (single isomer, unassigned; (-)) [Example 29, (−)-4-(2-Ethoxy-4-fluorophenyl)-5-fluoro-N-{6-fluoro-4-[(S-methylsulfonimidoyl)methyl]pyridin-2-yl}pyridin-2-amine], for which the IC50 in experiment [1] worked out at 81 nM; in experiment [2] it was 100 nM; against CDK9/CycT1 it was 3 nM; in experiment [3], 110 nM.

For the molecule `COc1cc(F)ccc1-c1cc(Nc2cc(CS(C)(=N)=O)cc(F)n2)ncc1F` (single isomer, unassigned; (-)) [Example 20, (−)-5-Fluoro-4-(4-fluoro-2-methoxyphenyl)-N-{6-fluoro-4-[(S-methylsulfonimidoyl)methyl]pyridin-2-yl}pyridin-2-amine], the IC50 stood at 38 nM in experiment [1]; 45 nM in experiment [2] (Homo sapiens, Caco-2, 96 h); 2 nM against CDK9/CycT1; 30 nM in experiment [3] (Homo sapiens, 96 h).

Turning to `COc1cc(F)ccc1-c1cc(Nc2cc(CS(C)(=O)=NC(=O)C(F)(F)F)cc(C(F)(F)F)n2)ncc1F` (single isomer, unassigned; (+)) [Example 24, (+)-2,2,2-Trifluoro-N-[{[2-{[5-fluoro-4-(4-fluoro-2-methoxyphenyl)pyridin-2-yl]amino}-6-(trifluoromethyl)-pyridin-4-yl]methyl}(methyl)oxido-λ^6-sulfanylidene]acetamide], the IC50 came to 30 nM in experiment [1] (Homo sapiens, 96 h); 41 nM in experiment [2] (Homo sapiens, Caco-2, 96 h); 18 nM on CDK9/CycT1; 32 nM in experiment [3] (Homo sapiens, 96 h).

In the case of `COc1cc(F)ccc1-c1cc(Nc2cc(CS(C)(=O)=NC(=O)C(F)(F)F)cc(C(F)(F)F)n2)ncc1F` (single isomer, unassigned; (-)) [Example 25, (−)-2,2,2-Trifluoro-N-[{[2-{[5-fluoro-4-(4-fluoro-2-methoxyphenyl)pyridin-2-yl]amino}-6-(trifluoromethyl)-pyridin-4-yl]methyl}(methyl)oxido-λ^6-sulfanylidene]acetamide], the IC50 in experiment [1] stood at 30 nM; in experiment [2], 45 nM; against CDK9/CycT1, 15 nM; in experiment [3], 35 nM.
